{"source": "patent US9513253B2", "about": "“Droplet actuators and techniques for droplet-based enzymatic assays” (Advanced Liquid Logic, Inc., priority 2011, dated 2016)", "test": "4-MU partitioning assay, backward transfer partitioning (backward extraction; BE), effect of aqueous phase surfactants on 4-MU containment", "format": "physicochemical", "settings": "surfactant at 1.5 times its CMC; oil phase 5 cSt silicone oil with 0.1% w/v Triton X-15; lower signal = better 4-MU retention", "text": "The efficacy of different surfactants (detergents) in containing 4-MU (or derivatives) within an aqueous phase may, for example, be evaluated using a partitioning assay. Parameters that may be varied in the assay for evaluation of surfactants in aqueous containment of 4-MU (or derivatives) include, but are not limited to, the pH of the aqueous phase solution, and the critical micelle concentration of the surfactant.\nThe assay format includes forward transfer partitioning (forward extraction; FE) of 4-MU from an aqueous phase to an oil phase and backward transfer partitioning (backward extraction; BE) of 4-MU from an oil phase to an aqueous phase. The assay is performed in 96-well microtiter substrates; clear 96-well substrates (e.g., Costar 3631) for evaluation of forward transfer partitioning with bottom probe fluorescence detection and solid black 96-well substrates (e.g., Costar 3915) for evaluation of backward transfer partitioning with top probe fluorescence detection. A BioTek Synergy HT instrument with 3 mm top probe and 5 mm bottom probe, may, for example, be used for fluorescence measurements. […]", "data": [{"substance": "ANAPOE ®-20 (Tween ® 20) [AS17]", "values": [{"measurement": "relative fluorescence reading, backward transfer partitioning (BE) of 4-MU", "result": "43,000-44,000 RFU"}]}]}
